Series [1] deals with T. cruzi Y strain. Description: Antiparasitic activity on T. cruzi: image-based intracellular amastigote assay in infected U2OS cells. The series is classed as cell-based, Trypanosoma cruzi. The note with it: T. cruzi in U2OS host cells, 3 days, normalized by DMSO and benznidazole controls; for Inhibition norm. inf. ratio IC50: number of infected host cells; for IC50: Trypanosoma cruzi, 72 h, number of parasites in host cell cytoplasm, read-out: Inhibition norm. para. num. IC50. The method, then: All compounds isolated were tested against Trypanosoma cruzi and Leishmania donovani, using the liquid microdilution method. Madurastatins were not active against L. donovani at the highest concentration tested, showing IC50 values higher than 50 µM. […] Human osteosarcoma cell line U2OS (ATCC HTB-96) and rhesus monkey kidney epithelial cell LLM-MK2 (ATCC CCL-7) were purchased from the American Type Culture Collection (ATCC, Manassas, VA, USA). T. cruzi Y strain was maintained as tissue culture trypomastigotes (TCT) by infection to LLC-MK2 cell line. The U2OS human cell was cultivated in DMEM-high-glucose media supplemented with 10% heat-inactivated fetal bovine serum (FBS, Thermo Fisher Scientific, Waltham, MA, USA). To visualize amastigote replication, U2OS cells were seeded in a 384-well plate (4 × 10^3 cells/well) and infected with 5 × 10^4 TCT parasites in DMEM-low-glucose media supplemented with 2% heat-inactivated FBS as previously described. The reference drug 400 μM of benznidazole (positive control), 0.5% DMSO (negative control), and the tested samples were treated on the day of assay and then incubated for 3 days at 37 °C, 5% CO2. After incubation was completed, the cells and parasites were fixed with 4% paraformaldehyde (PFA), and the DNA was stained with 5 μM DRAQ5 (Biostatus, Shepshed, Leicestershire, UK) followed by image acquisition using an automated confocal microscope (Operetta CLS, PerkinElmer, Waltham, MA, USA) with a […] laser at 20× objective. The acquired images were analyzed with Columbus software (v2.3) (PerkinElmer) to quantify cell numbers, parasites numbers, and infection ratio. Data were normalized by positive and negative controls. The activity of the tested samples was determined in terms of IC50 and CC50 calculated with XLfit software (v5) (IDBS, Boston, MA, USA). The quality of the assay data was assessed with Z’ factor, assay windows, and CV [37].

Series [2] deals with L. donovani MHOM/ET/67/HU3. The experiment in a line: Antiparasitic activity on L. donovani: image-based intracellular assay in infected differentiated THP-1 cells. The series is classed as cell-based, Leishmania donovani. The note with it: L. donovani in PMA-differentiated THP-1 host cells, 3 days, normalized by controls; for Inhibition norm. inf. ratio IC50: number of infected host cells; for IC50: Leishmania donovani, 72 h, number of parasites in host cell cytoplasm, read-out: Inhibition norm. para. num. IC50. The method, then: All compounds isolated were tested against Trypanosoma cruzi and Leishmania donovani, using the liquid microdilution method. Madurastatins were not active against L. donovani at the highest concentration tested, showing IC50 values higher than 50 µM.
(§1) Human monocyte cell line THP-1 (ATCC TIB-202) was purchased from the American Type Culture Collection (ATCC). The assay for activity against L. donovani was performed as previously described. L. donovani MHOM/ET/67/HU3 was cultivated as promastigotes at 28 °C in M199 (Sigma-Aldrich, St. Louis, MO, USA) with 40 mM HEPES, 0.1 mM adenine, 0.0001% biotin, and 4.62 mM NaHCO3, supplemented with 10% heat-inactivated FBS and incubated 6 days before infection to enrich the proportion of metacyclic promastigotes. THP-1 was cultivated in RPMI medium (Thermo Fisher Scientific) supplemented with 10% heat-inactivated FBS and differentiated with 50 ng/mL of phorbol 12-myristate 13-acetate (PMA, Sigma-Aldrich) before infection. Purified L. donovani parasites were seeded with 1:20 infection ratio in 384-well plates and incubated for 24 h, then followed by the treatment of 4 μM amphotericin B (Sigma-Aldrich) as positive control, 0.5% DMSO as negative control, and tested samples. After additional incubation for 3 days at 37 °C, 5% CO2, the cells and parasites were fixed with 4% PFA and stained with 5 μM DRAQ5. Fluorescent images were acquired from each well using an automated confocal microscope (Operetta CLS) with a […] laser at 20× objective.
(§2) The acquired images were analyzed with Columbus software (v2.3) (PerkinElmer) to quantify cell numbers, parasites numbers, and infection ratio. Data were normalized by positive and negative controls. The activity of the tested samples was determined in terms of IC50 and CC50 calculated with XLfit software (v5) (IDBS, Boston, MA, USA). The quality of the assay data was assessed with Z’ factor, assay windows, and CV [37].

Series [3] relates to U2OS cells. Description: Host cell cytotoxicity (cell ratio) in the T. cruzi assay. The series is classed as cell-based, Human. The note with it: number of U2OS host cells in T. cruzi assay, 3 days.
Source text: Human osteosarcoma cell line U2OS (ATCC HTB-96) and rhesus monkey kidney epithelial cell LLM-MK2 (ATCC CCL-7) were purchased from the American Type Culture Collection (ATCC, Manassas, VA, USA). T. cruzi Y strain was maintained as tissue culture trypomastigotes (TCT) by infection to LLC-MK2 cell line. The U2OS human cell was cultivated in DMEM-high-glucose media supplemented with 10% heat-inactivated fetal bovine serum (FBS, Thermo Fisher Scientific, Waltham, MA, USA). To visualize amastigote replication, U2OS cells were seeded in a 384-well plate (4 × 10^3 cells/well) and infected with 5 × 10^4 TCT parasites in DMEM-low-glucose media supplemented with 2% heat-inactivated FBS as previously described. The reference drug 400 μM of benznidazole (positive control), 0.5% DMSO (negative control), and the tested samples were treated on the day of assay and then incubated for 3 days at 37 °C, 5% CO2. After incubation was completed, the cells and parasites were fixed with 4% paraformaldehyde (PFA), and the DNA was stained with 5 μM DRAQ5 (Biostatus, Shepshed, Leicestershire, UK) followed by image acquisition using an automated confocal microscope (Operetta CLS, PerkinElmer, Waltham, MA, USA) with a […] laser at 20× objective.
as §2

For series [4], the system named is THP-1 cells. The experiment in a line: Host cell cytotoxicity (cell ratio) in the L. donovani assay. The series is classed as cell-based, Human. The note with it: number of THP-1 host cells in L. donovani assay, 3 days. The method, then:
as §1, §2

A word on the IC50: it is the concentration that inhibits the measured activity by half. Consider `CC1N(C)C(CCCN(O)C(=O)CCNC(=O)CNC(=O)C2COC(c3ccccc3O)=N2)C(=O)N1C1CCCN(O)C1=O` (stereo not drawn) [D1 (4), madurastatin D1], for which the “Inhibition norm. inf. ratio IC50” value in series [1] and in series [2] was >50 µM throughout. For the same compound, the IC50 is 27.2 µM in series [1] and > 50 µM in series [2]. The figures for the “Cell ratio (%) CC50” value in series [3] and in series [4] were 46.77 µM and >50 µM, respectively.
Regarding `C[C@@H]1N(C)[C@@H](CCCN(O)C(=O)CCNC(=O)CNC(=O)[C@H]2COC(c3ccccc3O)=N2)C(=O)N1[C@H]1CCCN(O)C1=O` [33-epi D1 (3), 33-epi-madurastatin D1], the “Inhibition norm. inf. ratio IC50” value in series [1] and in series [2] was >50 µM throughout. The figures for the IC50 in series [1] and in series [2] were 46.1 µM and > 50 µM, respectively. The “Cell ratio (%) CC50” value in series [3] and in series [4] was >50 µM throughout.
For the compound `CN1C(CCCN(O)C(=O)CCNC(=O)CNC(=O)C2COC(c3ccccc3O)=N2)C(=O)N(C2CCCN(O)C2=O)C1(C)C` (stereo not drawn) [D2 (5), madurastatin D2], the “Inhibition norm. inf. ratio IC50” value in series [1] and in series [2] was >50 µM each time. Moreover, the IC50 in series [1] was 8.93 µM; in series [2] it was > 50 µM. Further, the “Cell ratio (%) CC50” value was 24.74 µM in series [3] and >50 µM in series [4].
For the compound `CNC(CCCN(O)C(=O)CCNC(=O)CNC(=O)C1COC(c2ccccc2O)=N1)C(=O)NC1CCCN(O)C1=O` (stereo not drawn) [C1 (1), madurastatin C1], the “Inhibition norm. inf. ratio IC50” value in series [1] and in series [2] was >50 µM throughout. For the same compound, the IC50 was 30.8 µM in series [1] and > 50 µM in series [2]. Moreover, the “Cell ratio (%) CC50” value in series [3] and in series [4] was >50 µM throughout.
In the case of `CN1[C@@H](CCCN(O)C(=O)CCNC(=O)CNC(=O)[C@@H](CO)NC(=O)c2ccccc2O)C(=O)N([C@H]2CCCN(O)C2=O)C1(C)C` [H2 (2), madurastatin H2], the “Inhibition norm. inf. ratio IC50” value in series [1] and in series [2] was >50 µM in each case. The IC50 in series [1] and in series [2] was > 50 µM each time. Besides, the “Cell ratio (%) CC50” value in series [3] and in series [4] was >50 µM in each case.

(Values after PMC10779116, “Madurastatins with Imidazolidinone Rings: Natural Products or Side-Reaction Products from Extraction Solvents?” (International Journal of Molecular Sciences, 2023).)
